Source: patent US9657351B2, “MRNA-based gene expression for personalizing patient cancer therapy with an MDM2 antagonist” (Hoffmann-La Roche Inc., priority 2013, dated 2017)

Key:
Assay in all cases: COMPOUND A In Vitro Assay
Assay type in all cases: cell-based
[1] = system: NCI-H345; conditions: Homo sapiens, Lung, TP53 Mutant
How it was run: (§1)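 Within a large bank of human cancer lines, response to MDM2 antagonism by COMPOUND A was scored as IC50 from high-throughput assays. Sensitivity and resistance thresholds were IC50<=1 and IC50>=10, respectively.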

[2] = system: LP-1; conditions: Homo sapiens, Lymphocyte, peripheral blood, TP53 Mutant
How it was run: as §1

[3] = system: HARA; conditions: Homo sapiens, Lung, TP53 Mutant
How it was run: as §1

[4] = system: NCI-H1793; conditions: Homo sapiens, Lung, TP53 Mutant
How it was run: as §1

[5] = system: MDA-MB-468; conditions: Homo sapiens, Breast, mammary gland, TP53 Mutant
How it was run: as §1

[6] = system: BT-20; conditions: Homo sapiens, Breast, mammary gland, TP53 Mutant
How it was run: as §1

[7] = system: HT-1376; conditions: Homo sapiens, Urinary, bladder, TP53 Mutant
How it was run: as §1

[8] = system: NCI-H2023; conditions: Homo sapiens, Lung, TP53 Mutant
How it was run: as §1

[9] = system: NIH:OVCAR-3; conditions: Homo sapiens, Ovary, TP53 Mutant
How it was run: as §1

[10] = system: NCI-H209; conditions: Homo sapiens, Lung, TP53 Mutant
How it was run: as §1

[11] = system: SW403; conditions: Homo sapiens, SW-403, Intestine, large, colon, TP53 Mutant
How it was run: as §1

[12] = system: SCC-15; conditions: Homo sapiens, Tongue, TP53 Mutant
How it was run: as §1

[13] = system: SNU-5; conditions: Homo sapiens, Stomach, TP53 Mutant
How it was run: as §1

[14] = system: LS1034; conditions: Homo sapiens, LS-1034, Intestine, large, caecum, TP53 Mutant
How it was run: as §1

[15] = system: NCI-H250; conditions: Homo sapiens, Lung, TP53 NA
How it was run: as §1

[16] = system: WiDr; conditions: Homo sapiens, Intestine, large, colon, TP53 Mutant
How it was run: as §1

[17] = system: THP-1; conditions: Homo sapiens, Blood, TP53 Mutant
How it was run: as §1

[18] = system: SUM52PE; conditions: Homo sapiens, Breast, TP53 Wild type
How it was run: as §1

[19] = system: MC/CAR; conditions: Homo sapiens
How it was run: as §1

[20] = system: L-363; conditions: Homo sapiens, Lymphocyte, peripheral blood, TP53 Mutant
How it was run: as §1

[21] = system: 647-V; conditions: Homo sapiens, Urinary tract, urothelium, TP53 Mutant
How it was run: as §1

[22] = system: NKM-1; conditions: Homo sapiens
How it was run: as §1

[23] = system: U-698-M; conditions: Homo sapiens, Tonsil, TP53 Mutant
How it was run: as §1

[24] = system: KMS-20; conditions: Homo sapiens, Lymphocyte, TP53 Mutant
How it was run: as §1

[25] = system: SBC-5; conditions: Homo sapiens, Lung, TP53 Mutant
How it was run: as §1

[26] = system: CMK-11-5; conditions: Homo sapiens, Lymphocyte, TP53 Mutant
How it was run: as §1

[27] = system: DMS 114; conditions: Homo sapiens, Lung, TP53 Mutant
How it was run: as §1

[28] = system: A549; conditions: Homo sapiens
How it was run: as §1

[29] = system: CFPAC-1; conditions: Homo sapiens, Pancreas, TP53 Mutant
How it was run: as §1

[30] = system: VCaP; conditions: Homo sapiens, Prostate, TP53 Mutant
How it was run: as §1

[31] = system: RPMI-2650; conditions: Homo sapiens
How it was run: as §1

[32] = system: MDA-MB-157; conditions: Homo sapiens, Breast, mammary gland, TP53 Mutant
How it was run: as §1

[33] = system: ABC-1; conditions: Homo sapiens, Lung, TP53 Mutant
How it was run: as §1

[34] = system: SCaBER; conditions: Homo sapiens, Urinary, bladder, TP53 Mutant
How it was run: as §1

[35] = system: SKM-1; conditions: Homo sapiens, Lymphocyte, peripheral blood, TP53 Mutant
How it was run: as §1

[36] = system: PC-1; conditions: Homo sapiens, tissue null, TP53 Wild type
How it was run: as §1

[37] = system: LS513; conditions: Homo sapiens
How it was run: as §1

With `CCOc1cc(C(C)(C)C)ccc1C1=N[C@@](C)(c2ccc(Cl)cc2)[C@@](C)(c2ccc(Cl)cc2)N1C(=O)N1CCN(CCCS(C)(=O)=O)CC1` [COMPOUND A] the IC50 [1] was 17 µM, the IC50 [2] was 4.4 µM and the IC50 [3] was 19 µM. The IC50 [4] was 10 µM, the IC50 [5] was 10 µM and the IC50 [6] was 3.6 µM. It also gave an IC50 [7] of 16 µM, an IC50 [8] of 5.8 µM and an IC50 [9] of 17 µM. The IC50 [10] was 11 µM, the IC50 [11] was 6 µM and the IC50 [12] was 20 µM. For the same compound, the IC50 [13] was 16 µM, the IC50 [14] was 5.7 µM and the IC50 [15] was 12 µM. For the same compound, the IC50 [16] was 8.9 µM, the IC50 [17] was 9.7 µM and the IC50 [18] was 8.7 µM. For the same compound, the IC50 ([19]; MC/CAR cells) was 0.7 µM, the IC50 ([19]; MC/CAR, Lymphocyte B, peripheral blood, TP53 Wild type) was 0.69 µM and the IC50 [20] was 32 µM. For the same compound, the IC50 [21] was 17 µM, the IC50 ([22]; NKM-1, Lymphocyte, TP53 Wild type) was 0.32 µM and the IC50 ([22]; NKM-1 cells) was 0.3 µM. The IC50 [23] was 9.8 µM, the IC50 [24] was 13 µM and the IC50 [25] was 18 µM. The IC50 [26] was 9.6 µM, the IC50 [27] was 10 µM and the IC50 ([28]; A549, A549, Lung, TP53 Wild type) was 0.86 µM. The IC50 ([28]; A549, A549 cells) was 0.9 µM, the IC50 [29] was 5.7 µM and the IC50 [30] was 13 µM. The IC50 ([31]; RPMI-2650, RPMI-2650, Nasal septum, TP53 Wild type) was 0.77 µM, the IC50 ([31]; RPMI-2650, RPMI-2650 cells) was 0.8 µM and the IC50 [32] was 20 µM. It also gave an IC50 [33] of 9.9 µM, an IC50 [34] of 8.5 µM and an IC50 [35] of 19 µM. For the same compound, the IC50 [36] was 1.3 µM, the IC50 ([37]; LS-513, LS513, Intestine, large, caecum, TP53 Wild type) was 0.49 µM and the IC50 ([37]; LS-513, LS513 cells) was 0.5 µM.
